Test results as given in US11524966B1 (Valo Early Discovery, Inc., priority 2017, dated 2022).

Each compound was assayed against T1, USP28 (USP28-5(1-1077)-TEV-6*His; LifeSensors) (Homo sapiens, UniProt Q96RU2) (assay: Ubiquitin-Rhodamine 110 Assay for USP28 Activity, Example A-1(b)). Settings: Ub-Rh110 assay, Example A-1(b).
T1 construct: construct USP28 (USP28-5(1-1077)-TEV-6*His; LifeSensors); TEV cleavage site (C); 6xHis (C); purchased LifeSensors
T1 sequence (Q96RU2 1-1077): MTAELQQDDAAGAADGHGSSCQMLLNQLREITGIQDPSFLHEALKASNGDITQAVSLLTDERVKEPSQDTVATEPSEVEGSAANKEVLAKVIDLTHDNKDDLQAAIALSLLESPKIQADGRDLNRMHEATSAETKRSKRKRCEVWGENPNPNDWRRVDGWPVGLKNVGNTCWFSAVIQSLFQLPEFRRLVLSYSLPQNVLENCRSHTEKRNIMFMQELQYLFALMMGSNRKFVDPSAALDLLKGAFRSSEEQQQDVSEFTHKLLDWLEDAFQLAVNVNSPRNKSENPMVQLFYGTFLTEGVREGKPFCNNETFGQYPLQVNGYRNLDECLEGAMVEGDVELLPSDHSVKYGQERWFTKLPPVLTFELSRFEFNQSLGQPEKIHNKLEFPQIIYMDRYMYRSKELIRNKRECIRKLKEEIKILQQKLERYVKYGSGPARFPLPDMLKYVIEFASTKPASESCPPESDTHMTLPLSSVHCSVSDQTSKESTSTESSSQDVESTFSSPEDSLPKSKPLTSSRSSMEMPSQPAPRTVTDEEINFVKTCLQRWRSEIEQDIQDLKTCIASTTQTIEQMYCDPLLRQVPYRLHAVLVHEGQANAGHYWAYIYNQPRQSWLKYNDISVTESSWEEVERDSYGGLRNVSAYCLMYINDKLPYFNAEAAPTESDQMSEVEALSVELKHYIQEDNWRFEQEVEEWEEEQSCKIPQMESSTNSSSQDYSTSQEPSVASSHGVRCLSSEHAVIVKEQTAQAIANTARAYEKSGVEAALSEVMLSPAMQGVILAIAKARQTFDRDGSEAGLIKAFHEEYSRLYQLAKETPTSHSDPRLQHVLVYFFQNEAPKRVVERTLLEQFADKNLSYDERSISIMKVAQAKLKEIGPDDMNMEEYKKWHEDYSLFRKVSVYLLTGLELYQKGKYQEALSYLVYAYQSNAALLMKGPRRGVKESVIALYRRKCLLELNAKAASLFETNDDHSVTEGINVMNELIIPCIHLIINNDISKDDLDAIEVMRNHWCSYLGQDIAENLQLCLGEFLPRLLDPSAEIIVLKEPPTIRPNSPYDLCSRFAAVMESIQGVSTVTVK
Type: biochemical
Summary of the method: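 Single-point screening used 10 μM compound with 90 min room-temperature incubation; follow-up dose-responses (25 μM top, 3-fold) used 75 pM USP28 1-1077 construct, 30 min compound preincubation, 25 nM Ub-Rh110, 20 min reaction, citric acid quench. Rh110 fluorescence normalised to no-enzyme and DMSO controls; IC50 from 4-parameter logistic fit.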

Structure (SMILES) | USP28 A-1(b) IC50 range
Cc1cc(C)c2c(N)c(C(=O)N[C@H]3COc4cc(N5CC6CC(C5)N6)ccc4C3)sc2n1 [Example 2-18, N-((3R)-7-(3,6-diazabicyclo[3.1.1]heptan-3-yl)chroman-3-yl)-3-amino-4,6-dimethylthieno[2,3-b]pyridine-2-carboxamide] | +++ (0.05-0.2 μM)
Cc1cc(C)c2c(N)c(C(=O)N[C@H]3COc4cc(N5CC6CNCC(C5)C6(F)F)ccc4C3)sc2n1 [Example 2-19, 3-amino-N-((3R)-7-(9,9-difluoro-3,7-diazabicyclo[3.3.1]nonan-3-yl)chroman-3-yl)-4,6-dimethylthieno[2,3-b]pyridine-2-carboxamide] | ++++ (0.001-0.05 μM)
Cc1cc(C)c2c(N)c(C(=O)N[C@H]3COc4cc(N5CC6CNCC(C5)O6)ccc4C3)sc2n1 [Example 2-20, N-((3R)-7-(9-oxa-3,7-diazabicyclo[3.3.1]nonan-3-yl)chroman-3-yl)-3-amino-4,6-dimethylthieno[2,3-b]pyridine-2-carboxamide] | +++ (0.05-0.2 μM)
Cc1cc(C(F)(F)F)c2c(N)c(C(=O)N[C@H]3COc4cc(N5CC6CC(C5)N6)ccc4C3)sc2n1 [Example 2-21] | ++ (0.2-2 μM)
Cc1cc(C(F)(F)F)c2c(N)c(C(=O)N[C@H]3COc4cc(N5CC6CNCC(C5)C6(F)F)ccc4C3)sc2n1 [Example 2-22, 3-amino-N-((3R)-7-(9,9-difluoro-3,7-diazabicyclo[3.3.1]nonan-3-yl)chroman-3-yl)-6-methyl-4-(trifluoromethyl)thieno[2,3-b]pyridine-2-carboxamide] | ++++ (0.001-0.05 μM)
O=C(N[C@H]1COc2cc(N3CC4CCC(C3)N4)ccc2C1)c1cnc2c(c1)C1(CCN2)CC1 [Example 2-24, N-((3R)-7-(3,8-diazabicyclo[3.2.1]octan-3-yl)chroman-3-yl)-2′,3′-dihydro-1′H-spiro[cyclopropane-1,4′-[1,8]naphthyridine]-6′-carboxamide] | + (>2 μM)
O=C(N[C@H]1COc2cc(N3CC4CCC(C3)N4)ccc2C1)c1ccc(NCc2ccccc2)nc1 [Example 2-25, N-((3R)-7-(3,8-diazabicyclo[3.2.1]octan-3-yl)chroman-3-yl)-6-(benzylamino)nicotinamide] | ++ (0.2-2 μM)
Cc1nc2sc(C(=O)N[C@H]3COc4cc(N5CC6CC(C5)N6)ccc4C3)c(N)c2s1 [Example 2-26, N-((3R)-7-(3,6-diazabicyclo[3.1.1]heptan-3-yl)chroman-3-yl)-6-amino-2-methylthieno[2,3-d]thiazole-5-carboxamide] | ++ (0.2-2 μM)
Cc1nc2sc(C(=O)N[C@H]3COc4cc(N5CC6CCCC(C5)N6)ccc4C3)c(N)c2s1 [Example 2-27] | ++ (0.2-2 μM)
Cc1nc2sc(C(=O)N[C@H]3COc4cc(N5CC6CNCC(C5)C6(F)F)ccc4C3)c(N)c2s1 [Example 2-28, 6-amino-N-((3R)-7-(9,9-difluoro-3,7-diazabicyclo[3.3.1]nonan-3-yl)chroman-3-yl)-2-methylthieno[2,3-d]thiazole-5-carboxamide] | +++ (0.05-0.2 μM)
CCn1ccc2cc(C(=O)N[C@H]3COc4cc(N5CC6CCCC(C5)N6)ccc4C3)nnc21 [Example 2-29, N-((3R)-7-(3,9-diazabicyclo[3.3.1]nonan-3-yl)chroman-3-yl)-7-ethyl-7H-pyrrolo[2,3-c]pyridazine-3-carboxamide] | ++ (0.2-2 μM)
CCn1ccc2cc(C(=O)N[C@H]3COc4cc(N5CC6CNCC(C5)C6(F)F)ccc4C3)cnc21 [Example 2-30, N-((3R)-7-(9,9-difluoro-3,7-diazabicyclo[3.3.1]nonan-3-yl)chroman-3-yl)-1-ethyl-1H-pyrrolo[2,3-b]pyridine-5-carboxamide] | ++++ (0.001-0.05 μM)
Cc1ccc2c(N)c(C(=O)N[C@H]3COc4cc(N5CC6CNCC(C5)C6(F)F)c(C#N)cc4C3)sc2n1 [Example 2-33, 3-amino-N-((3R)-6-cyano-7-(9,9-difluoro-3,7-diazabicyclo[3.3.1]nonan-3-yl)chroman-3-yl)-6-methylthieno[2,3-b]pyridine-2-carboxamide] | ++++ (0.001-0.05 μM)
